Results reported in patent US12495798B2, “Nicotinamide compound and herbicidal composition comprising compound” (KOREA RESEARCH INSTITUTE OF CHEMICAL TECHNOLOGY, priority 2019, dated 2025).

Columns and labels:
Assay in all cases: Phytotoxicity test for upland field crops (foliar treatment test)
Type in all cases: in vivo
Design in all cases: key: 0 (no harm); 9 (complete withered)
[1] = test system: wheat
Experimental: (§1) Experimental Example 3: Phytotoxicity Test for Upland Field Crops (Foliar Treatment Test)
(§2) Foliar treatment was performed for grown crops and weeds in a square plastic pot having a surface area of 50 cm^2 filled with horticultural soil. As a fertilizer per pot, 0.5 g of horticultural mixed fertilizer (N:P:K=17:21:17) was treated by mixing in the upper soil. Five kinds of crops such as rice, wheat, corn, soybean, and cotton were sown in each pot, and after growing for a certain period in greenhouse conditions (average temperature 30±5° C., light/dark=14/10 hours), test compound solutions were made by diluting with the diluent (33% acetone, 0.1% Tween-20) so that the final treatment amount of the test compounds was 19˜300 g a.i./ha. The prepared test compound solutions were treated using a spray booth (SB6-016) at a treatment amount of 100 ml per 1 m^2 of treatment area. The treated plants were managed under the same greenhouse conditions as above, and external symptoms and phytotoxicity were investigated 7 and 14 days after treatment (after 21 days if necessary). In the evaluation of the phytotoxicity for the crop, the grade of 0 (no harm) to 9 (complete withered) was used. The results of Table 9 were obtained by evaluating crop phytotoxicity value to the untreated control.

[2] = test system: rice
Experimental: as §1, §2

[3] = test system: corn
Experimental: as §1, §2

[4] = test system: soybean
Experimental: as §1, §2

[5] = test system: cotton
Experimental: as §1, §2

[6] = 50 g ai/ha, Wheat (7 days after treatment)
[7] = 50 g ai/ha, Wheat (14 days after treatment)
[8] = 100 g ai/ha, Wheat (7 days after treatment)
[9] = 100 g ai/ha, Wheat (14 days after treatment)
[10] = 50 g ai/ha, Rice (7 days after treatment)
[11] = 50 g ai/ha, Rice (14 days after treatment)
[12] = 100 g ai/ha, Rice (7 days after treatment)
[13] = 100 g ai/ha, Rice (14 days after treatment)
[14] = 50 g ai/ha, Corn (7 days after treatment)
[15] = 50 g ai/ha, Corn (14 days after treatment)
[16] = 100 g ai/ha, Corn (7 days after treatment)
[17] = 100 g ai/ha, Corn (14 days after treatment)
[18] = 50 g ai/ha, Soybean (7 days after treatment)
[19] = 50 g ai/ha, Soybean (14 days after treatment)
[20] = 100 g ai/ha, Soybean (7 days after treatment)
[21] = 100 g ai/ha, Soybean (14 days after treatment)
[22] = 50 g ai/ha, Cotton (7 days after treatment)
[23] = 50 g ai/ha, Cotton (14 days after treatment)
[24] = 100 g ai/ha, Cotton (7 days after treatment)
[25] = 100 g ai/ha, Cotton (14 days after treatment)

Row | Structure (SMILES) | Foliar treatment phytotoxicity, Wheat [1, 6] | Foliar treatment phytotoxicity, Wheat [1, 7] | Foliar treatment phytotoxicity, Wheat [1, 8] | Foliar treatment phytotoxicity, Wheat [1, 9] | Foliar treatment phytotoxicity, Rice [2, 10] | Foliar treatment phytotoxicity, Rice [2, 11] | Foliar treatment phytotoxicity, Rice [2, 12] | Foliar treatment phytotoxicity, Rice [2, 13] | Foliar treatment phytotoxicity, Corn [3, 14] | Foliar treatment phytotoxicity, Corn [3, 15] | Foliar treatment phytotoxicity, Corn [3, 16] | Foliar treatment phytotoxicity, Corn [3, 17] | Foliar treatment phytotoxicity, Soybean [4, 18] | Foliar treatment phytotoxicity, Soybean [4, 19] | Foliar treatment phytotoxicity, Soybean [4, 20] | Foliar treatment phytotoxicity, Soybean [4, 21] | Foliar treatment phytotoxicity, Cotton [5, 22] | Foliar treatment phytotoxicity, Cotton [5, 23] | Foliar treatment phytotoxicity, Cotton [5, 24] | Foliar treatment phytotoxicity, Cotton [5, 25]
1 | COC(=O)OC(C)N(C(=O)c1ccc(C(F)(F)F)nc1COCc1ncn(C)n1)c1nnnn1C (stereo not shown) [Compound No. 4-1, methyl(1-(2-(((1-methyl-1H-1,2,4-triazol-3-yl)methoxy)methyl)-N-(1-methyl-1H-tetrazol-5-yl)-6-(trifluoromethyl)nicotinamido)ethyl)carbonate] | 0 | 0 | 0 | 0 | 2 | 6 | 3 | 7 | 0 | 0 | 0 | 0 | 4 | 6 | 4 | 8 | 3 | 8 | 3 | 8
2 | Cn1nnnc1CSc1nc(C(F)(F)F)ccc1C(=S)Nc1nnnn1C [1-44] | 0 | 0 | 0 | 0 | 6 | 9 | 6 | 9 | 5 | 3 | 5 | 3 | 6 | 7 | 6 | 7 | 4 | 9 | 5 | 9
